Assay [1] concerns global cerebral ischemia in Wistar rats. The assay can be described thus: Neurological deficit score after transient global cerebral ischemia (four-vessel occlusion). It is filed as in vivo. The conditions noted are these: 5 days of reperfusion, vehicle 3.3±0.21. How it is done:
(§1) Animal model of global cerebral ischemia, experimental design and administration of nitrones. Transient forebrain ischemia was induced in adult male Wistar rats (10-12 weeks, Charles River) by the standard four-vessel occlusion model (4V0) previously described.^44,56 Briefly, both vertebral arteries were irreversibly occluded by electrocoagulation under anesthesia with a mixture of atropine, ketamine and diazepam (0.25, 62.5, and 5 mg/kg, respectively) delivered by intraperitoneal injection. After 24 h, ischemia was induced by carotid occlusion with atraumatic clips for 15 min and then clips were removed from the carotid arteries to allow reperfusion. Body temperature of 37° C. was maintained. The animals were studied after 5 days of reperfusion (R5 d). We performed a power analysis (http://www.biomath.info/power/ttest.htm) to determine the sample size. We chose the significant level at 0.05, the power set at 0.8 (80%), and a ratio of control/treated group of 2:1, and the sample size obtained was 10 subjects per control group and <6 subjects per treated group. […]
Animals were subjected to 15 min of cerebral ischemia, treated with vehicle or QN 23 at the onset of reperfusion period, and studied after 5 days of reperfusion (R5 d). We evaluated the neurological deficit score (NDS) to assess the effect of QN 23 following global ischemia-reperfusion in R5 d animals. […]

Assay [2] shares this test system. The assay can be described thus: Neuronal death by Fluoro-Jade B staining after global cerebral ischemia. It is filed as in vivo. The conditions noted are these: R5 d. Here is the method: as §1, with “group. A total of 26 ischemic animals were used for the study of nitrone 23 efficacy. Here 6 animals were treated with 1.5 mg/kg of nitrone 23, or 40 mg/kg of compound 2, and 14 animals were included in control (vehicle) group, two of which died after 2 days. The treatments were performed with allocated concealment, assigning a random order to each vehicle or treated animal by computer-generated randomization program.” for “group.”
Neuronal death evaluation. Neuronal death was evaluated by Fluoro-Jade-B staining. Brain cryosections (10 μm thick) from ischemic animals that underwent reperfusion for 5 days were used after fixation to detect neuronal death by Fluoro-Jade-B staining,^44 and visualized by fluorescence microscopy. Labeled (dead) neuronal cells (in green) were counted as in TUNEL assay (see below). Data from different animals of each experimental group were independently analyzed by two observers, and treatment information was blindly performed throughout the study. […]

For assay [3] the test system is unchanged. The assay can be described thus: Neuronal apoptosis by TUNEL assay after global cerebral ischemia. It counts as in vivo. As to conditions: R5 d. Here is the method: as §1, with “group. A total of 26 ischemic animals were used for the study of nitrone 23 efficacy. Here 6 animals were treated with 1.5 mg/kg of nitrone 23, or 40 mg/kg of compound 2, and 14 animals were included in control (vehicle) group, two of which died after 2 days. The treatments were performed with allocated concealment, assigning a random order to each vehicle or treated animal by computer-generated randomization program. Ischemic animals were treated with nitrone 23 diluted in 10% ethanol in saline as vehicle by intraperitoneal injection when the carotid arteries were unclamped for reperfusion.” for “group.”
TUNEL assay. Apoptotic neurons within brain sections were detected using the Terminal deoxynucleotidyl transferase-mediated dUTP Nick-End Labeling (TUNEL) assay (Promega). […]
The hippocampal CA1 subfield and cerebral and lateral cortex fields from a given section were analyzed with fluorescence microscopy (40× objective) to count the number of apoptotic nuclei (green). […]

Assay [4] relates to tMCAO in C57BL/6 mice. The conditions noted are these: 40 mg/kg; data recently reported by the group; cited from earlier work.
Assay [5] relates to primary neuronal cultures subjected to OGD. The assay can be described thus: ROS formation in primary neuronal cultures after OGD. It counts as cell-based, rat. The conditions noted are these: 2 h recovery after 4 h OGD; significant at 100 μM. Here is the method: Measurement of the ROS formation. To detect the intracellular ROS formation a nonfluorescent and cell permeable reagent was used according to the supplier instructions (Sigma, MAK143). The reagent enters into the cells and reacts with ROS (especially superoxide and hydroxyl radicals) in the cytoplasm, resulting in a fluorometric product proportional to the amount of ROS present. The reagent was added to the cells at the moment that they were subjected to different treatments. After recovery period for 2 h, the fluorescence intensity was at 490 nm λex and 535 nm λem.
Exposure of neuronal cultures to 4 h OGD induced significant ROS generation after 2 h recovery in normoxic and normoglycemic conditions (R2 h) (210%, p<0.005 compared with 100% control) (FIG. 5A). […] ROS generation may induce lipid peroxidation and cell membrane damage. […] The decrease of ROS formation and lipid peroxidation were significant at 100 μM QN 23, in accordance with the concentration at which the QN 23 had the higher neuroprotective activity against experimental ischemia in neuronal cultures (FIG. 4 and Table 1).

[6] abbreviates: 1.5 mg/kg i.p., compared with vehicle.

Results on two compounds are retold here after patent US12102631B2, “Quinolylnitrones for the treatment and prevention of a cerebral stroke or ischaemia” (ISQUAEMIA BIOTECH, S.L., priority 2018, dated 2024).

Take `CC(C)(C)/[N+]([O-])=C/c1ccc(S(=O)(=O)O)cc1S(=O)(=O)O` [Compound 2, sodium (Z)-4-((tert-butyloxidoazanylidene)methyl)benzene-1,3-disulfonate, reference compound]: the “neurological deficit score (NDS)” value in assay [1] (40 mg/kg) came out at 2.5±0.28. The “effect on neuronal death, CA1 and cortical regions (in words)” value in assay [2] (40 mg/kg) is “did not produce a significant effect”. The “effect on neuronal apoptosis (in words)” value in assay [3] (40 mg/kg) is “induced a decrease of neuronal apoptosis, although it was not significant”. For the same compound, the “size of the ischemic lesion (in words)” value in assay [4] was “did not reduce the size of the ischemic lesion”.
For `COc1ccc2nc(Cl)c(/C=[N+](\[O-])C(C)(C)C)cc2c1` [Compound 23, (Z)—N-tert-Butyl-1-(2-chloro-6-methoxyquinolin-3-yl)methanimine oxide], in assay [5], the ROS formation entry was “significantly decreased to the control value”. Also, the “neurological deficit score (NDS)” value in assay [1] (1.5 mg/kg i.p. at onset of reperfusion) was 2.0±0.44. Further, in assay [2] (setting [6]), the “decrease of neuronal death, CA1 region” value is given as 33% and the “decrease of neuronal death, cortical region” value was 90%. Moreover, in assay [3] (1.5 mg/kg), the “decrease of neuronal apoptosis, CA1 region” value is recorded as 39% and the “decrease of neuronal apoptosis, cerebral cortex” value came to 84%.
